{"source": "patent US12490740B2", "about": "“Active compound combinations having insecticidal properties” (Bayer Aktiengesellschaft, priority 2019, dated 2025)", "key": {"[1]": {"test_system": "Phaedon cochleariae", "test": "Phaedon cochleariae - spray test (cabbage leaves)", "type": "in vivo", "experimental": "(§1) The expected efficacy of a given combination of two compounds is calculated as follows (see Colby, S. R., “Calculating Synergistic and antagonistic Responses of Herbicide Combinations”, Weeds 15, pp. 20-22, 1967): • If • X is the efficacy expressed in % mortality of the untreated control for test compound A at a concentration of m ppm respectively m g/ha, • Y is the efficacy expressed in % mortality of the untreated control for test compound B at a concentration of n ppm respectively n g/ha, • E is the efficacy expressed in % mortality of the untreated control using the mixture of A and B at m and n ppm respectively m and n g/ha, • then is\n(§2) If the observed insecticidal efficacy of the combination is higher than the one calculated as “E”, then the combination of the two compounds is more than additive, i.e. there is a synergistic effect.\nPhaedon cochleariae—Spray Test\n(§3) • Solvent: 7 parts by weight of dimethylformamide • Emulsifier: alkylaryl polyglycol ether\n(§4) To produce a suitable preparation of active compound, 1 part by weight of active compound is mixed with the stated amount of solvent and is diluted with water, containing an emulsifier concentration of 1000 ppm, to the desired concentration. Further test concentrations are prepared by dilution with emulsifier containing water.\nCabbage leaves (Brassica oleracea) are treated by being sprayed with the preparation of the active compound of the desired concentration and are infested with mustard beetle larvae (Phaedon cochleariae).\nAfter the specified period of time mortality in % is determined. 100% means all the beetle larvae have been killed and 0% means none of the beetle larvae have been killed. The mortality values determined thus are recalculated using the Colby-formula (see sheet 1)."}, "[2]": {"test_system": "Spodoptera frugiperda", "test": "Spodoptera frugiperda - spray test (cotton leaves)", "type": "in vivo", "experimental": "as §1, §2\nSpodoptera frugiperda—Spray Test\nas §3, §4\nCotton leaves (Gossypium hirsutum) are treated by being sprayed with the preparation of the active compound of the desired concentration and are infested with caterpillars of the fall army worm (Spodoptera frugiperda).\nAfter the specified period of time mortality in % is determined. 100% means all the caterpillars have been killed and 0% means none of the caterpillars have been killed. The mortality values determined thus are recalculated using the Colby-formula (see above)."}, "[3]": {"conditions": "Spodoptera frugiperda, 72 h, read-out: Mortality in % after 3 days"}}, "note": "Where two headings read alike, the source gives them in different places."}
{"compound": "CS(=O)(=O)Oc1cccc(Cl)c1C1CC(c2csc(C3CCN(C(=O)Cn4nc(C(F)F)cc4C(F)F)CC3)n2)=NO1", "note": "(centres unmarked) [Fluoxapiprolin, fluoxapiprolin]", "values": [{"measurement": "Mortality in % after 1 day", "setting": "[1]; 3 ppm", "value": 0, "unit": "%"}, {"measurement": "Mortality in % after 2 days", "setting": "[1]; 3 ppm", "value": 0, "unit": "%"}, {"measurement": "Mortality in % after 1 day", "setting": "[1]; 6 ppm", "value": 0, "unit": "%"}]}
{"compound": "tetraniliprole", "values": [{"measurement": "Mortality in % after 2 days", "setting": "[2]; 0.06 ppm, after 2 days, caterpillars on sprayed cotton leaves", "value": 20, "unit": "%"}, {"measurement": "Mortality in % after 3 days", "setting": "[2]; 0.06 ppm", "value": 30, "unit": "%"}, {"measurement": "Mortality in % after 6 days", "setting": "[2]; 0.06 ppm, after 6 days", "value": 60, "unit": "%"}, {"measurement": "Mortality in % after 3 days", "setting": "[2]; 0.12 ppm", "value": 80, "unit": "%"}, {"measurement": "Mortality in % after 1 day", "setting": "[1]; 0.12 ppm", "value": 10, "unit": "%"}, {"measurement": "Mortality in % after 2 days", "setting": "[1]; 0.12 ppm", "value": 40, "unit": "%"}, {"measurement": "Mortality in % after 1 day", "setting": "[1]; 0.24 ppm, beetle larvae on sprayed cabbage leaves", "value": 30, "unit": "%"}]}
{"compound": "CON(C(=O)c1cn(C)nc1C(F)F)C(C)Cc1c(Cl)cc(Cl)cc1Cl", "note": "(racemic) [Pydiflumetofen, 3-(difluoromethyl)-N-methoxy-1-methyl-N—[(RS)-1-methyl-2-(2,4,6-trichlorophenyl)ethyl]-1H-pyrazole-4-carboxamide]", "values": [{"measurement": "mortality at 1.5 ppm", "setting": "[2]; Spodoptera frugiperda, 48 h, read-out: Mortality in % after 2 days", "value": 0, "unit": "%"}, {"measurement": "mortality at 1.5 ppm", "setting": "[2]; [3]", "value": 0, "unit": "%"}, {"measurement": "mortality at 3 ppm", "setting": "[2]; [3]", "value": 0, "unit": "%"}, {"measurement": "mortality at 1.5 ppm", "setting": "[2]; Spodoptera frugiperda, 144 h, read-out: Mortality in % after 6 days", "value": 0, "unit": "%"}]}
